Test results published in PubChem BioAssay AID248 (DTP/NCI, 2004).
Values joined by “and” are separate entries in the source; they are usually repeats but may differ in a detail not shown here. Equal values may be shown once. Inconclusive results and toxic doses are left out. Rule as the data show it: active = T/C of 150% or more; inactive = T/C below 125%.

Test system: L1210 leukemia ip in BDF1 mice, survival T/C
Test: NCI In Vivo Anticancer Drug Screen. Data for tumor model L1210 Leukemia (intraperitoneal) in B6D2F1 (BDF1) mice
Conditions: endpoint: mean survival time, higher = longer survival
Outline: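 In this screen, tumor-bearing mice given compound are compared to those given vehicle, and their survival values are reported as a treated-to-control quotient.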

[1] = dose: 100.0 mg/kg/injection, schedule: Q04DX003 (ip), vehicle: saline
[2] = dose: 200.0 mg/kg/injection, schedule: Q04DX003 (ip), vehicle: saline
[3] = dose: 400.0 mg/kg/injection, schedule: Q04DX003 (ip), vehicle: saline
[4] = dose: 100.0 mg/kg/injection, schedule: Q01DX009 (sc), vehicle: olive oil, sesame oil, peanut oil
[5] = dose: 100.0 mg/kg/injection, schedule: Q04DX003 (sc), vehicle: olive oil, sesame oil, peanut oil
[6] = dose: 200.0 mg/kg/injection, schedule: Q01DX009 (sc), vehicle: olive oil, sesame oil, peanut oil
[7] = dose: 200.0 mg/kg/injection, schedule: Q04DX003 (sc), vehicle: olive oil, sesame oil, peanut oil
[8] = dose: 400.0 mg/kg/injection, schedule: Q01DX009 (sc), vehicle: olive oil, sesame oil, peanut oil
[9] = dose: 400.0 mg/kg/injection, schedule: Q04DX003 (sc), vehicle: olive oil, sesame oil, peanut oil
[10] = dose: 100.0 mg/kg/injection, schedule: Q01DX009 (ip), vehicle: saline with Tween-80
[11] = dose: 200.0 mg/kg/injection, schedule: Q01DX009 (ip), vehicle: saline with Tween-80
[12] = dose: 100.0 mg/kg/injection, schedule: Q04DX003 (ip), vehicle: saline with Tween-80
[13] = dose: 200.0 mg/kg/injection, schedule: Q04DX003 (ip), vehicle: saline with Tween-80
[14] = dose: 100.0 mg/kg/injection, schedule: Q01DX009 (ip), vehicle: Klucel (hydroxypropylcellulose) (HPC)
[15] = dose: 100.0 mg/kg/injection, schedule: Q04DX003 (ip), vehicle: Klucel (hydroxypropylcellulose) (HPC)
[16] = dose: 200.0 mg/kg/injection, schedule: Q04DX003 (ip), vehicle: Klucel (hydroxypropylcellulose) (HPC)

Measured: T/C

CC(=O)OCC(=O)[C@@]1(O)CC[C@H]2[C@@H]3C[C@@H](C)C4=CC(=O)C=C[C@]4(C)[C@H]3[C@@H](O)C[C@@]21C
inactive: dose: 75.0 mg/kg/injection, schedule: Q01DX009 (sc), vehicle: steriod suspending solution 92 % of control | dose: 100.0 mg/kg/injection, schedule: Q04DX003 (ip), vehicle: steriod suspending solution 97 % of control | dose: 100.0 mg/kg/injection, schedule: Q04DX003 (sc), vehicle: steriod suspending solution 100 % of control | dose: 150.0 mg/kg/injection, schedule: Q01DX009 (sc), vehicle: steriod suspending solution 92 % of control | dose: 200.0 mg/kg/injection, schedule: Q04DX003 (ip), vehicle: steriod suspending solution 91 % of control | dose: 200.0 mg/kg/injection, schedule: Q04DX003 (sc), vehicle: steriod suspending solution 102 % of control | dose: 300.0 mg/kg/injection, schedule: Q01DX009 (sc), vehicle: steriod suspending solution 92 % of control | dose: 400.0 mg/kg/injection, schedule: Q04DX003 (ip), vehicle: steriod suspending solution 94 % of control | dose: 400.0 mg/kg/injection, schedule: Q04DX003 (sc), vehicle: steriod suspending solution 103 % of control

O=C(CS(=O)(=O)O)Nc1ccccc1 (tested in a mixture with another compound)
inactive: dose: 100.0 mg/kg/injection, schedule: Q01DX001 (ip), vehicle: saline with Tween-80 93 % of control | dose: 200.0 mg/kg/injection, schedule: Q01DX001 (ip), vehicle: saline with Tween-80 103 % of control | dose: 400.0 mg/kg/injection, schedule: Q01DX001 (ip), vehicle: saline with Tween-80 90 % of control

Cn1c(=O)c2c(nc(NCC[N+](C)(C)C)n2C)n(C)c1=O
inactive: dose: 15.0 mg/kg/injection, schedule: Q01DX001 (ip), vehicle: saline 92 % of control | dose: 30.0 mg/kg/injection, schedule: Q01DX001 (ip), vehicle: saline 97 % of control

CCOC(=O)CNCc1ccc(F)cc1
inactive: dose: 100.0 mg/kg/injection, schedule: Q01DX009 (ip), vehicle: saline 105 % of control | [1] 104 % of control | dose: 200.0 mg/kg/injection, schedule: Q01DX009 (ip), vehicle: saline 103 % of control | [2] 110 % of control | dose: 400.0 mg/kg/injection, schedule: Q01DX009 (ip), vehicle: saline 88 % of control | [3] 100 % of control

Cc1cc(NS(=O)(=O)c2ccc(N=Nc3c(N)nc(N)nc3N)cc2)nc(C)n1
inactive: dose: 100.0 mg/kg/injection, schedule: Q01DX001 (ip), vehicle: carboxymethylcellulose (CMC) 103 % of control | dose: 200.0 mg/kg/injection, schedule: Q01DX001 (ip), vehicle: carboxymethylcellulose (CMC) 97 % of control | dose: 400.0 mg/kg/injection, schedule: Q01DX001 (ip), vehicle: carboxymethylcellulose (CMC) 105 % of control

Cc1c(Cl)c(Cl)cc([N+](=O)[O-])c1Cl
inactive: dose: 66.0 mg/kg/injection, schedule: Q01DX009 (sc), vehicle: olive oil, sesame oil, peanut oil 100 % of control | [4] 98 % of control | [5] 105 % of control | dose: 150.0 mg/kg/injection, schedule: Q01DX009 (sc), vehicle: olive oil, sesame oil, peanut oil 102 % of control | [6] 94 % of control | [7] 106 % of control | [8] 105 % of control | [9] 97 % of control

O=C1NC(c2ccccc2)(c2ccccc2)C(=O)N1CCCl
inactive: dose: 100.0 mg/kg/injection, schedule: Q01DX009 (ip), vehicle: acetone 102 % of control | [1] 101 % of control | dose: 200.0 mg/kg/injection, schedule: Q01DX009 (ip), vehicle: acetone 101 % of control | [2] 95 % of control | dose: 400.0 mg/kg/injection, schedule: Q01DX009 (ip), vehicle: acetone 104 % of control | [3] 110 % of control

C=C=CC(C=O)(CC)CCCC (stereo not given)
inactive: dose: 50.0 mg/kg/injection, schedule: Q01DX009 (ip), vehicle: saline with Tween-80 91 % of control | [10] 94 % of control | [11] 98 % of control

COc1ccc(OCC(=O)O)c(C=O)c1
inactive: [10] 95 % of control | [12] 115 % of control | [11] 93 % of control | [13] 96 % of control | dose: 400.0 mg/kg/injection, schedule: Q01DX009 (ip), vehicle: saline with Tween-80 91 % of control | dose: 400.0 mg/kg/injection, schedule: Q04DX003 (ip), vehicle: saline with Tween-80 106 % of control

CCCCCCC#CC(=O)O
inactive: [4] 103 % of control | [5] 97 % of control | [6] 108 % of control | [7] 106 % of control | [8] 95 % of control | [9] 108 % of control

ClC(Cl)(Cl)c1ccc(C(Cl)(Cl)Cl)cc1
inactive: dose: 12.5 mg/kg/injection, schedule: Q01DX009 (ip), vehicle: Klucel (hydroxypropylcellulose) (HPC) 96 % of control | dose: 25.0 mg/kg/injection, schedule: Q01DX009 (ip), vehicle: Klucel (hydroxypropylcellulose) (HPC) 104 % of control | dose: 50.0 mg/kg/injection, schedule: Q01DX009 (ip), vehicle: Klucel (hydroxypropylcellulose) (HPC) 94 % of control and 97 % of control | [14] 94 % of control | [15] 105 % of control | [16] 91 % of control

CC/C(=C(\CC)c1ccc(OCC(=O)OCCNCCCl)cc1)c1ccc(OCC(=O)OCCNCCCl)cc1
inactive: dose: 6.25 mg/kg/injection, schedule: Q04DX002 (ip), vehicle: saline 94 % of control | dose: 12.5 mg/kg/injection, schedule: Q04DX002 (ip), vehicle: saline 97 % of control | dose: 25.0 mg/kg/injection, schedule: Q04DX002 (ip), vehicle: saline 94 % of control

COc1ccc(Cl)cc1NC(=O)OCCCc1ccccc1
inactive: dose: 100.0 mg/kg/injection, schedule: Q01DX009 (ip), vehicle: gum acacia 108 % of control | dose: 200.0 mg/kg/injection, schedule: Q01DX009 (ip), vehicle: gum acacia 98 % of control | dose: 400.0 mg/kg/injection, schedule: Q01DX009 (ip), vehicle: gum acacia 109 % of control

CN(C)C(=O)c1ccc(NCc2cnc3nc(N)nc(N)c3n2)cc1
inactive: dose: 20.0 mg/kg/injection, schedule: Q01DX009 (ip), vehicle: Klucel (hydroxypropylcellulose) (HPC) 97 % of control | dose: 40.0 mg/kg/injection, schedule: Q01DX009 (ip), vehicle: Klucel (hydroxypropylcellulose) (HPC) 96 % of control | dose: 80.0 mg/kg/injection, schedule: Q01DX009 (ip), vehicle: Klucel (hydroxypropylcellulose) (HPC) 97 % of control

O=C(OCC#CC#CCOC(=O)c1ccccc1)c1ccccc1
inactive: [14] 102 % of control | [15] 94 % of control | dose: 200.0 mg/kg/injection, schedule: Q01DX009 (ip), vehicle: Klucel (hydroxypropylcellulose) (HPC) 95 % of control | [16] 96 % of control | dose: 400.0 mg/kg/injection, schedule: Q01DX009 (ip), vehicle: Klucel (hydroxypropylcellulose) (HPC) 104 % of control | dose: 400.0 mg/kg/injection, schedule: Q04DX003 (ip), vehicle: Klucel (hydroxypropylcellulose) (HPC) 89 % of control

CCCOP(=O)(OCCC)C(OC(=O)C(C)C)=C(C)C
inactive: [12] 97 % of control | [13] 94 % of control

COc1ccc(C2(c3ccccc3)OC(=O)c3ccccc32)c2ccccc12 (stereo not given)
inactive: dose: 100.0 mg/kg/injection, schedule: Q01DX001 (ip), vehicle: other 110 % of control | dose: 100.0 mg/kg/injection, schedule: Q04DX003 (ip), vehicle: other 104 % of control | dose: 200.0 mg/kg/injection, schedule: Q01DX001 (ip), vehicle: other 92 % of control | dose: 200.0 mg/kg/injection, schedule: Q04DX003 (ip), vehicle: other 100 % of control | dose: 400.0 mg/kg/injection, schedule: Q01DX001 (ip), vehicle: other 86 % of control | dose: 400.0 mg/kg/injection, schedule: Q04DX003 (ip), vehicle: other 111 % of control

Nc1ncnc2c1c(I)cn2C1OC(CO)C(O)C1O (stereo not given)
inactive: dose: 5.0 mg/kg/injection, schedule: Q01DX001 (ip), vehicle: saline 102 % of control | dose: 10.0 mg/kg/injection, schedule: Q01DX001 (ip), vehicle: saline 101 % of control | dose: 20.0 mg/kg/injection, schedule: Q01DX001 (ip), vehicle: saline 103 % of control | dose: 40.0 mg/kg/injection, schedule: Q01DX001 (ip), vehicle: saline 105 % of control
